In patent US10273237B2, “Imidazopyridazine compounds useful as modulators of IL-12, IL-23 and/or IFN-α responses” (BRISTOL-MYERS SQUIBB COMPANY, priority 2013, dated 2019):
Where “and” joins values, the source holds several entries; their conditions need not be identical. Equal entries are not always repeated. Where two headings read alike, the source gives them in different places.

Legend:
[1] = tested on: IFNα-stimulated Kit225 T cells with STAT-dependent luciferase reporter; assay: Kit225 T cell assay, STAT-dependent luciferase reporter, IFNα stimulated; format: cell-based, human; conditions: 5-6 hours, read-out: IFNa Kit225 Reporter, LE (IC50)
In short: (§1)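 Kit225 T cells carrying a stably integrated STAT-dependent luciferase reporter, in RPMI with 10% heat-inactivated FBS, stimulated with 20 ng/mL human recombinant IL-23 or 200 U/mL human recombinant IFNα for 5-6 h. Luciferase expression read by Steady-Glo luminescence.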

[2] = target: T1, His-tagged protein corresponding to amino acids 575-869 of human Tyk2 (Homo sapiens, UniProt P29597); assay: Probe displacement assay (scintillation proximity, radiolabeled probe); format: binding; conditions: 2.5 nM Tyk2 (575-869), 40 nM [3H] probe, 30 minutes at room temperature
T1 construct: made in house
T1 sequence (P29597 with tags, fused parts or gaps): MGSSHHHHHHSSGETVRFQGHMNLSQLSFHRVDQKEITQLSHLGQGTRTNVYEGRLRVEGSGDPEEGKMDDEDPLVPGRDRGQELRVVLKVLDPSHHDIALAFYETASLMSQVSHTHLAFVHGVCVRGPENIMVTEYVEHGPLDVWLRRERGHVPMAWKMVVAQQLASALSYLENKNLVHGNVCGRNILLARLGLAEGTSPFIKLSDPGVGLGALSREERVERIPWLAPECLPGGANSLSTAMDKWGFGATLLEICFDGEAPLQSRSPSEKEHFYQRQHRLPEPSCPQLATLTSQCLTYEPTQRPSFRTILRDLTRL
Protocol: The preparation of radiolabeled probe, (R)—N-(1-(3-(8-methyl-5-(methylamino)-8H-imidazo[4,5-d]thiazolo[5,4-b]pyridin-2-yl)phenyl)ethyl)-2-([^3H]methylsulfonyl)benzamide, was performed as described below: […]

[3] = tested on: IL-23-stimulated Kit225 T cells with STAT-dependent luciferase reporter; assay: Kit225 T cell assay, STAT-dependent luciferase reporter, IL-23 stimulated; format: cell-based, human; conditions: read-out: IL-23 Kit225 Reporter, LE (IC50)
In short: as §1

[4] = Homo sapiens, KIT225, 200 U/mL human recombinant IFNα
[5] = Homo sapiens, KIT225, 20 ng/mL human recombinant IL-23, 5-6 hours
[6] = 200 U/mL human recombinant IFNα
[7] = 20 ng/mL human recombinant IL-23, 5-6 hours

Row | IC50 [1, 4] [nM] | EC50 [2] | IC50 [3, 5] [nM] | IC50 [1, 6] [nM] | IC50 [3, 7] [nM] | SMILES
1 | 100 | 16 nM | 200 | – | – | CNc1cc(Nc2cccn(-c3ccc(C#N)cc3)c2=O)nn2c(C(=O)NCC(C)(C)CO)cnc12 [Example 25]
2 | 60 | 16 nM | 60 | – | – | CNc1cc(Nc2cccn(-c3ccccn3)c2=O)nn2c(C(=O)NCC(C)(C)CO)cnc12 [Example 197]
3 | 320 | 14 nM | 400 | – | – | CNc1cc(Nc2cccn(-c3ccc(C(F)(F)F)cc3)c2=O)nn2c(C(=O)NCC(C)(CO)CO)cnc12 [Example 132]
4 | 150 | 14 nM | 190 | – | – | CNc1cc(Nc2cccn(-c3ccc(N4CCOCC4)cc3)c2=O)nn2c(C(=O)NC3(C#N)CC3)cnc12 [Example 140]
5 | 80 | 4 nM | 150 | – | – | CNc1cc(Nc2cccn(-c3ccc(C(F)F)cc3)c2=O)nn2c(C(=O)NCC(C)(C)CO)cnc12 [Example 124]
6 | 490 | 57 nM | 360 | – | – | CNc1cc(Nc2cccn(C)c2=O)nn2c(C(=O)NC(C)(C)C)cnc12 [Example 211]
7 | 30 | 12 nM | 90 | – | – | CNc1cc(Nc2cc(F)cn(-c3ccc(C)nn3)c2=O)nn2c(C(=O)NC3CCC3)cnc12 [Example 93]
8 | 160 | 13 nM | 180 | – | – | CNc1cc(Nc2cccn(-c3cccnn3)c2=O)nn2c(C(=O)NC(C)C)cnc12 [Example 106]
9 | 290 | 23 nM | 260 | – | – | CNc1cc(Nc2cccn(-c3ccccn3)c2=O)nn2c(C(=O)NCc3nccs3)cnc12 [Example 190]
10 | 180 | 20 nM | 210 | – | – | CNc1cc(Nc2cccn(-c3cccc(F)n3)c2=O)nn2c(C(=O)N[C@@H]3CCOC3)cnc12 [Example 61]
11 | 70 | 8 nM | 240 | – | – | CNc1cc(Nc2cccn(C3(C)CC3)c2=O)nn2c(C(=O)NCC(C)(C)CO)cnc12 [Example 163]
12 | 110 | 7 nM | 140 | – | – | CNc1cc(Nc2cccn(-c3ccc(C)nn3)c2=O)nn2c(C(=O)NC3CC3)cnc12 [Example 63]
13 | 810 | 73 nM | 360 | – | – | CNc1cc(Nc2cccn(C)c2=O)nn2c(C(=O)NCC3CCC3)cnc12 [Example 214]
14 | 140 | 15 nM | 70 | – | – | CNc1cc(Nc2cccn(-c3cnc(C)cn3)c2=O)nn2c(C(=O)NCC(C)(C)CO)cnc12 [Example 6, N-(3-Hydroxy-2,2-dimethylpropyl)-8-(methylamino)-6-((1-(5-methylpyrazin-2-yl)-2-oxo-1,2-dihydropyridin-3-yl)amino)imidazo[1,2-b]pyridazine-3-carboxamide]
15 | – | 4 nM | – | – | – | CNc1cc(Nc2cccn(-c3cnccn3)c2=O)nn2c(C(=O)NCC(C)(C)CO)cnc12 [Example 109]
16 | 180 | 15 nM and 22 nM | – | 260 | – | CNc1cc(Nc2cccn(C)c2=O)nn2c(C(=O)NCC(C)(C)C)cnc12 [Example 207]
17 | 70 | – | 180 | – | – | CNc1cc(Nc2cccn(-c3ccc(C(=O)N(C)C)cn3)c2=O)nn2c(C(=O)N[C@@H]3C[C@@H]3F)cnc12 [Example 257, 6-((5′-(Dimethylcarbamoyl)-2-oxo-2H-[1,2′-bipyridin]-3-yl)amino)-N-((1R,2S)-2-fluorocyclopropyl)-8-(methylamino)imidazo[1,2-b]pyridazine-3-carboxamide]
18 | – | – | – | 230 | 180 | CNc1cc(Nc2cccn(-c3ncccn3)c2=O)nn2c(C(=O)N[C@@H]3C[C@@H]3F)cnc12 [Example 55]
19 | – | – | – | 60 | 70 | CNc1cc(Nc2cc(F)cn(-c3ccccn3)c2=O)nn2c(C(=O)NC3CC3)cnc12 [Example 149]
20 | – | – | – | 530 | 60 | CNc1cc(Nc2cccn(-c3cncc(C)n3)c2=O)nn2c(C(=O)NCC(C)(C)CO)cnc12 [Example 238]

Row | IC50 [1, 4] [nM] | EC50 [2] | IC50 [3, 5] [nM] | IC50 [1, 6] [nM] | IC50 [3, 7] [nM] | SMILES
21 | – | – | – | 360 | 400 | CNc1cc(Nc2cc(F)cn(CC3CC3)c2=O)nn2c(C(=O)NC3(C#N)CC3)cnc12 [Example 16]
22 | – | – | – | 20 | 40 | CNc1cc(Nc2cccn(-c3ccc(C4CC4)nn3)c2=O)nn2c(C(=O)N[C@@H]3C[C@@H]3F)cnc12 [Example 98]
23 | 100 | – | 210 | – | – | O=C(NC1CCC1)c1cnc2c3c(c(Nc4cccn(-c5ccccn5)c4=O)nn12)OCCN3 [Example 239, N-Cyclobutyl-6-((2-oxo-2H-[1,2′-bipyridin]-3-yl)amino)-9,10-dihydro-8H-imidazo[1′,2′:1,6]pyridazino[4,5-b][1,4]oxazine-3-carboxamide]
24 | – | – | – | 160 | 220 | CNc1cc(Nc2cncn(-c3cccc(C(C)O)n3)c2=O)nn2c(C(=O)NC3CCC3)cnc12 (racemic) [Example 87]
25 | – | – | – | 270 | 480 | CCNc1cc(Nc2cccn(C)c2=O)nn2c(C(=O)NC3CCC3)cnc12 [Example 232]
26 | 110 | – | 90 | – | – | CNc1cc(Nc2cccn(-c3cnc(C(=O)N(C)C)cn3)c2=O)nn2c(C(=O)NCC(C)(C)CO)cnc12 [compound 262]
27 | – | – | – | 140 | 70 | CCNC(=O)c1cnc2c(NC)cc(Nc3cccn(-c4cccc(F)n4)c3=O)nn12 [Example 67]
28 | – | – | – | 140 | 500 | CNc1cc(Nc2cccn(C3CCOC3)c2=O)nn2c(C(=O)NC3CCC3)cnc12 (stereo not shown) [Example 221]
29 | – | – | – | 280 | 720 | CCC(CC)NC(=O)c1cnc2c(NC)cc(Nc3cccn(-c4ccc(C)nn4)c3=O)nn12 [Example 233]
30 | – | – | – | 150 | 480 | CNc1cc(Nc2cccn(-c3ccc(C(F)F)cc3)c2=O)nn2c(C(=O)NC3CC3)cnc12 [Example 18]
31 | – | – | – | 330 | 180 | CNc1cc(Nc2cccn(C)c2=O)nn2c(C(=O)NC(C)C)cnc12 [Example 209]
32 | – | – | – | 20 | 60 | CNc1cc(Nc2cccn(-c3cnc(C)cn3)c2=O)nn2c(C(=O)N[C@@H]3C[C@@H]3F)cnc12 [Example 103]
33 | – | – | – | 130 | 380 | CNc1cc(Nc2cccn(C3CC3)c2=O)nn2c(C(=O)NC3CC3)cnc12 [Example 44]
34 | – | – | – | 130 | 210 | CNc1cc(Nc2cccn(-c3ncccn3)c2=O)nn2c(C(=O)NC3CCC3)cnc12 [Example 52]
35 | – | – | – | 120 | 80 | CNc1cc(Nc2cccn(-c3ccccc3)c2=O)nn2c(C(=O)NC3CC3)cnc12 [Example 119]
36 | – | – | – | 310 | 640 | CNc1cc(Nc2cccn(C)c2=O)nn2c(C(=O)NC(C)(C)C#N)cnc12 [Example 130]
37 | – | – | – | 180 | 240 | CNc1cc(Nc2cccn(C3CCC3)c2=O)nn2c(C(=O)NC3(C#N)CC3)cnc12 [Example 229]
38 | – | – | – | 40 | 50 | CNc1cc(Nc2cccn(-c3ncc(F)cn3)c2=O)nn2c(C(=O)N[C@@H]3C[C@@H]3F)cnc12 [Example 174]
39 | – | – | – | 350 | 290 | CCc1ccc(-n2cccc(Nc3cc(NC)c4ncc(C(=O)N[C@@H]5C[C@@H]5F)n4n3)c2=O)nn1 [Example 181]
40 | – | – | – | 270 | 230 | CCNC(=O)c1cnc2c(NC)cc(Nc3cccn(-c4ccn(C)n4)c3=O)nn12 [Example 107]
